Source: patent publication US20170209364A1, “Method For Treating The Appearance Of Thinning Hair” (priority 2016, published 2017)

Key:
[1] = in vitro
Description: Cells were seeded in a 24-well plate and cultured for 24 hours in culture medium.
At the end of incubation, the cells were incubated with MTT (tetrazolium salt) reduced in blue formazan crystals by succinate dehydrogenase (mitochondrial enzyme). This transformation is proportional to the enzyme activity. After cell dissociation and formazan crystal solubilization using DMSO, the optical density (OD) of the extracts at 540 nm, proportional to the number of living cells and their metabolic activity, was recorded with a microplate reader (VERSAmax, Molecular Devices). The equation used for measuring cell viability is as follows: viability (%)=(OD sample/OD control)×100.
Dermal papilla cell viability is measured with a standard MTT assay (via ASTM E2526-08(2013)).

[2] = system: 5-α reductase enzyme; assay: 5-α reductase inhibition: [14C]-testosterone metabolism to DHT in cultured cells (TLC/autoradiography); format: cell-based; conditions: Finasteride 1 × 10^−5 M (reference)
Description: Cells were seeded in a 24-well plate and cultured for 24 hours in culture medium. […] Cells were then treated with assay medium containing [^14C]-testosterone and containing the test compound, the association or the reference and the cells were incubated for 24 hours. The culture supernatants were then collected for testosterone metabolism analysis and a standard MTT reduction assay was performed on the cell layers (cell viability assessment).
All experimental conditions were performed in n=3.
The steroid molecules from supernatants were extracted with a chloroform/methanol mix. The organic phase was collected and the different molecular species (testosterone metabolites) were separated by thin layer chromatography (TLC) and using a solvent system containing dichloromethane, ethyl acetate and methanol.
An autoradiography was performed on the chromatography and the transformed testosterone was estimated by densitometric analysis of the different spots corresponding to testosterone metabolites (Packard Cyclone Phosphorlmager and Fujifilm Multigauge software).

SMILES: CC(C)(C)NC(=O)[C@H]1CC[C@H]2[C@@H]3CC[C@H]4NC(=O)C=C[C@]4(C)[C@H]3CC[C@]12C [Finasteride, finasteride]
- viability at 48 h [1]: 101%
- DHT/Testosterone ratio as % of Control [2]: 28%
